Experimental data from article PMC11097163 (ACS Omega, 2024).
Converted amounts (≈) assume the structure as drawn. One block for each compound: values may come before it.

What was measured:
[1] = standards: high / moderate / low aqueous solubility; cited from earlier work
[2] = Organ distribution after IV administration; format: in vivo; conditions: rat, IV 10 mg/kg, 5 min after dosing
GI permeability, PAMPA = format: in vitro ADME; conditions: pH 7.4
[3] = Metabolic stability in liver microsomes; format: in vitro ADME, human, monkey, dog, rat, mouse; conditions: MLM, RLM, DLM, MkLM, HLM; 1 mg/mL protein, 5 µM, 30 min
[4] = Plasma stability in rat plasma; format: in vitro ADME; conditions: 5 µM, 2 h, 37°C
CYP2C8 = target: T1, CYP2C8 (Homo sapiens, UniProt P10632); assay: CYP inhibition in HLM, CYP2C8; format: biochemical; conditions: IC50 (μM), amodiaquine N-deethylation
T1 sequence (P10632 1-490): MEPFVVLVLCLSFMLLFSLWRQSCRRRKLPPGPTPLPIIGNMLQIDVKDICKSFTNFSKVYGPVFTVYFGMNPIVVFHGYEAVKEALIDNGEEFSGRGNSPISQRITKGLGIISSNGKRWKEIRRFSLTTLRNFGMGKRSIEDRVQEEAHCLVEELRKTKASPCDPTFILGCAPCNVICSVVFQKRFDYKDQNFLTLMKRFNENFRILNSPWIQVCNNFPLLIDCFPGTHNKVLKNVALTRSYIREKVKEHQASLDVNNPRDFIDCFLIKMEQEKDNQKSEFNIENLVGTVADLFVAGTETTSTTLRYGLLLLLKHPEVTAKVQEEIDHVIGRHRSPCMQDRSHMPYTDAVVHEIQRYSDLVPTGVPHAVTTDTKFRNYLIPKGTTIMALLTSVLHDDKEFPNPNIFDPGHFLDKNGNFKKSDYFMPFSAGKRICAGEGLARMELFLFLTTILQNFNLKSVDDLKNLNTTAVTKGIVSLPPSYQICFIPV

P-gp [5] = target: P-gp (Homo sapiens, UniProt P08183); assay: P-gp inhibition, intracellular accumulation of Rh123 in LS180 cells; format: cell-based
[6] = Pharmacokinetics and oral bioavailability after oral and IV administration; format: in vivo; conditions: rat
Caco-2 barrier = conditions: ref 50 (Lautenschlager et al.); cited from earlier work
CYP3A4 = assay: Western blot of liver CYP3A4 protein expression; format: in vivo; conditions: rat liver, crocetin with galantamine compared to only galantamine
CYP2D6 [7] = assay: Western blot of liver CYP2D6 protein expression; format: in vivo; conditions: rat liver, crocetin with donepezil compared to only donepezil
P-gp [8] = assay: P-gp induction, intracellular accumulation of Rh123 in LS180 cells; format: cell-based
pKa, UV-metric method = format: physicochemical; conditions: Britton-Robinson buffer, pH 1.81
[9] = Chemical stability in SGF and SIF; format: physicochemical; conditions: 37 °C, 10 µM
[10] = RBC partitioning in rat blood and plasma; format: in vitro ADME; conditions: fresh whole blood and reference plasma
[11] = Plasma protein binding, rapid equilibrium dialysis; format: in vitro ADME; conditions: rat, pH 7.4
[12] = Intrabrain distribution after IV administration; format: in vivo; conditions: rat, IV 10 mg/kg, 5 min after dosing
CYP2D6 [13] = target: CYP2D6 (Homo sapiens, UniProt P10635); assay: CYP inhibition in HLM, CYP2D6; conditions: IC50 (μM), dextromethorphan O-demethylation
[14] = Equilibrium solubility in biorelevant media, shake-flask method; format: physicochemical; conditions: water, 37 °C, thermodynamic from solid
[15] = systemic circulation after oral administration of crocin; cited from earlier work
[16] = female, Wistar, plasma, other: oral and intravenous

Chain of P-gp (Homo sapiens, UniProt P08183) (P08183 whole entry): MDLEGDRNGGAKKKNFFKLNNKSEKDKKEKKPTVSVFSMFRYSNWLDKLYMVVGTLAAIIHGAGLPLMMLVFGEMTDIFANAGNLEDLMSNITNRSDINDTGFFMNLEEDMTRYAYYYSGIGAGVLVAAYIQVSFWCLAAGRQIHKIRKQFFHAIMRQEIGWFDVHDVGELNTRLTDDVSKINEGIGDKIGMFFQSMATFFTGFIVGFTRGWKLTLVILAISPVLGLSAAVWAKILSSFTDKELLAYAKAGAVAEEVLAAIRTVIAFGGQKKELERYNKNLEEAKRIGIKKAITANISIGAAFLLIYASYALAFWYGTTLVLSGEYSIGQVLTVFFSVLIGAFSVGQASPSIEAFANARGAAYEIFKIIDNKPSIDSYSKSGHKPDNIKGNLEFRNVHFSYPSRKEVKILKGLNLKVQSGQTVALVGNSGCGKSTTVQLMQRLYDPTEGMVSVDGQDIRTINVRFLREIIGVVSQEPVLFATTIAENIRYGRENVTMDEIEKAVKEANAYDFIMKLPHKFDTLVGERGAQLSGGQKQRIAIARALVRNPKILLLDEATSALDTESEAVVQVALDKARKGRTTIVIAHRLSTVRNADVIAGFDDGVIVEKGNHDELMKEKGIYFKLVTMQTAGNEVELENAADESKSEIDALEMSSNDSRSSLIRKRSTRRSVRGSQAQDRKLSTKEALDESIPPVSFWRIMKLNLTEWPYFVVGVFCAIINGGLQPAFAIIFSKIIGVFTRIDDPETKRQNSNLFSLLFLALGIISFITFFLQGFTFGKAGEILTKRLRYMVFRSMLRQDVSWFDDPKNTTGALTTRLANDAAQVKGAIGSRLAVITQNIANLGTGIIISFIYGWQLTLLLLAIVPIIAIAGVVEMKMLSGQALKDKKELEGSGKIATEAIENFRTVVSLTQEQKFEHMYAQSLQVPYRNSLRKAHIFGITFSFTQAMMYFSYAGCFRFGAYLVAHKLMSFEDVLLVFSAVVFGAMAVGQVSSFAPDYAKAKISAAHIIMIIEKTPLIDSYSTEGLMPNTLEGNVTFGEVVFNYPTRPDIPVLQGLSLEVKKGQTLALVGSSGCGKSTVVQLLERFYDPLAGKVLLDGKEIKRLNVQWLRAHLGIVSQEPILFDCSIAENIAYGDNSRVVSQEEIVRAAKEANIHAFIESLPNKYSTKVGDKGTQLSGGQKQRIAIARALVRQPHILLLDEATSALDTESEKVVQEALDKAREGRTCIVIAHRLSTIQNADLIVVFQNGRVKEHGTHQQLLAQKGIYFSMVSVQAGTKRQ
Chain of CYP2D6 (Homo sapiens, UniProt P10635) (P10635 whole entry): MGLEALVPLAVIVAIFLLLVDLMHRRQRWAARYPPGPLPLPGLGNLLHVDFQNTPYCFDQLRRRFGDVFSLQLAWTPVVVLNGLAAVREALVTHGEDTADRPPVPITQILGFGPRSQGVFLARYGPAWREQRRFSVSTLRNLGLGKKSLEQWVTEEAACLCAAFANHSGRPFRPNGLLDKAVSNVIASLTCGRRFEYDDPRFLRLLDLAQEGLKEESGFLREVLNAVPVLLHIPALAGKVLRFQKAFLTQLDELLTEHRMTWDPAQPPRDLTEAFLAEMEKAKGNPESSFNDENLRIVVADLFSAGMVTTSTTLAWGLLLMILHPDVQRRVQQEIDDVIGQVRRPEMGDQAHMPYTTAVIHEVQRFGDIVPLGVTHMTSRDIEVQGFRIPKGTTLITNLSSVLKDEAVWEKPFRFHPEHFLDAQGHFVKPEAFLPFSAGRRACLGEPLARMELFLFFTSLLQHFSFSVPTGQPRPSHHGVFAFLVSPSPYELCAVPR

SMILES: COc1ccc(CCN2CCC(Nc3nc4ccccc4n3Cc3ccc(F)cc3)CC2)cc1 [astemizole]
- aqueous solubility (category of the standard) [1]: < 10 µg/mL

SMILES: CCCC1O[C@@H]2C[C@H]3[C@@H]4CCC5=CC(=O)C=C[C@]5(C)[C@H]4[C@@H](O)C[C@]3(C)[C@]2(C(=O)CO)O1 (stereo partly drawn) [budesonide]
- aqueous solubility (category of the standard) [1]: 10 to 100 µg/mL

- Papp at 5 h, 5 μM (GI permeability, PAMPA): 3.89 ×10⁻⁶ cm/s
- remaining intact in liver microsomes [3]: > 83%
- degradation in plasma [4]: < 5%
- IC50 (CYP2C8): 35.3 µM
- P-gp inhibitory activity (P-gp [5]; Rh123, 1 to 50 μM): no marked P-gp inhibitory activity
- clearance [6, 16]: ≤ 16.7 mL/min/kg
- half-life [6, 16]: > 2 h
- maximum plasma concentration ([6]; oral 20 mg/kg): 23 µM
- CYP3A4 protein expression (down-regulation) (CYP3A4): 0.61 fold
- CYP2D6 protein expression (down-regulation) (CYP2D6 [7]): 0.73 fold
- pKa (pKa, UV-metric method): 5.35
- intact (chemical stability) ([9]; SGF (pH 1.2), 2 h): 72%
- intact (chemical stability) ([9]; SIF (pH 6.8), 4 h): 68%
- blood plasma ratio at 0 min, 1000 nM [10]: 0.36 ± 0.01
- blood plasma ratio at 60 min, 1000 nM [10]: 0.39 ± 0.04
- fraction unbound at 4 h, 5 µM [11]: 0.03
- order of concentrations in brain parts [12]: cortex > cerebellum > hippocampus
- IC50 (CYP2D6 [13]): 20.4 µM
- solubility at 1 h [14]: 0.6 µg/mL (≈ 1.83 µM)
SMILES: CC(/C=C/C=C(\C)C(=O)O)=C\C=C\C=C(C)\C=C\C=C(/C)C(=O)O [crocetin]
- order of concentrations in organs [2]: liver > lungs > heart > kidney > spleen > brain
- Papp (Caco-2 barrier): 2.6 ± 0.6 × 10^–5 cm/s
- P-gp induction (P-gp [8]; Rh123, 25–50 μM): 22–24%
- exposure of crocetin relative to crocin [15]: 56–81 fold

SMILES: CO[C@H]1/C=C/O[C@@]2(C)Oc3c(C)c(O)c4c(O)c(c(/C=N/N5CCN(C)CC5)c(O)c4c3C2=O)NC(=O)/C(C)=C\C=C\[C@H](C)[C@H](O)[C@@H](C)[C@@H](O)[C@@H](C)[C@H](OC(C)=O)[C@@H]1C [rifampicin, reference compound]
- P-gp induction (decrease in intracellular accumulation of Rh123) (P-gp [8]; standard, 10 µM): significant induction of P-gp

- P-gp inhibition (increase in intracellular accumulation of Rh123) (P-gp [5]; standard, 10 µM): significant inhibition of P-gp
SMILES: O[C@@H](COc1cccc2ncccc12)CN1CCN([C@@H]2c3ccccc3[C@@H]3[C@H](c4ccccc42)C3(F)F)CC1 [zosuquidar, reference compound]
